This is an account of results in the supplement of paper PMC10307832.

Holding throughout (experiment): relative viability (nuclei count vs DMSO), 5 days (fraction); higher = more cells survive
Compound in test [1]: CCC1=CN=CN=C1N2CCN(CC2)CC3=NC4=C(N3)C=C(C=C4)C(F)(F)F + CC(=O)c1c(C)c2cnc(Nc3ccc(N4CCNCC4)cn3)nc2n(C2CCCC2)c1=O [Palbociclib] (partner 0.5 µM)
The method in brief:
(§1)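 One day after seeding in 1536-well plates, lung cancer cell lines were dosed by pin tool. Dosing was either single-drug or a fixed anchor-drug dose plus five library-drug doses (not always all listed) in √10 steps. After 5 days, nuclei were stained in one fix-and-stain step and counted on 4× images, and relative viability is the nuclei count of treated wells over that of vehicle wells, given as the median of duplicate plates.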

Compound in test [2]: CCn1c(-c2nonc2N)nc2cnc(Oc3cccc(NC(=O)c4ccc(OCCN5CCOCC5)cc4)c3)cc21 + CC(C)C[C@H](NC(=O)[C@H](Cc1ccccc1)NC(=O)c1cnccn1)B(O)O [Bortezomib] (partner 0.002 µM)
The method in brief:
as §1

Compound in test [3]: CCn1c(-c2nonc2N)nc2cnc(Oc3cccc(NC(=O)c4ccc(OCCN5CCOCC5)cc4)c3)cc21 + COc1cc2c(Oc3ccc(NC(=O)C4(C(=O)Nc5ccc(F)cc5)CC4)cc3F)ccnc2cc1OCCCN1CCOCC1 [Foretinib] (partner 0.25 µM)
An outline of the steps: as §1

Compound in test [4]: CCn1c(-c2nonc2N)nc2cnc(Oc3cccc(NC(=O)c4ccc(OCCN5CCOCC5)cc4)c3)cc21 + CS(=O)(=O)CCNCc1ccc(-c2ccc3ncnc(Nc4ccc(OCc5cccc(F)c5)c(Cl)c4)c3c2)o1 [Lapatinib] (partner 2 µM)
The method in brief: as §1

Take 201T: the relative viability stood at 0.331 in test [1] (first compound 0.04 µM); 0.348 in test [1] (first compound 0.1265 µM); 0.367 in test [1] (first compound 0.4 µM); 0.375 in test [1] (first compound 1.265 µM); 0.344 in test [1] (first compound 4 µM); 1.06 in test [2] (first compound 0.04 µM). The relative viability in test [2] (first compound 0.1265 µM) worked out at 1.02; in test [2] (first compound 0.4 µM) it was 1.11; in test [2] (first compound 1.265 µM), 1.02; in test [2] (first compound 4 µM), 1.03; in test [3] (first compound 0.04 µM) it was 1.28; in test [3] (first compound 0.1265 µM), 1.11. The relative viability in test [3] (first compound 0.4 µM) was 1.05; in test [3] (first compound 1.265 µM), 0.555; in test [3] (first compound 4 µM) it was 0.598; in test [4] (first compound 0.04 µM), 1.07; in test [4] (first compound 0.1265 µM) it was 0.967; in test [4] (first compound 0.4 µM) it was 0.78. Besides, the relative viability in test [4] (first compound 1.265 µM) came to 0.911; in test [4] (first compound 4 µM) it was 0.868.
A549: the relative viability is 1.19 in test [3] (first compound 0.04 µM); 0.985 in test [3] (first compound 0.1265 µM); 1.06 in test [3] (first compound 0.4 µM); 0.246 in test [3] (first compound 1.265 µM); 0.12 in test [3] (first compound 4 µM); 1.25 in test [4] (first compound 0.04 µM). Besides, the relative viability in test [4] (first compound 0.1265 µM) was determined as 0.916; in test [4] (first compound 0.4 µM), 0.884; in test [4] (first compound 1.265 µM), 0.118; in test [4] (first compound 4 µM), 0.107.
As to A-427, the relative viability turned out to be 0.451 in test [1] (first compound 0.04 µM); 0.489 in test [1] (first compound 0.1265 µM); 0.499 in test [1] (first compound 0.4 µM); 0.479 in test [1] (first compound 1.265 µM); 0.475 in test [1] (first compound 4 µM); 1.16 in test [2] (first compound 0.04 µM). Besides, the relative viability was 0.952 in test [2] (first compound 0.1265 µM); 0.892 in test [2] (first compound 0.4 µM); 0.946 in test [2] (first compound 1.265 µM); 0.475 in test [2] (first compound 4 µM); 1.12 in test [3] (first compound 0.04 µM); 0.947 in test [3] (first compound 0.1265 µM). Besides, the relative viability in test [3] (first compound 0.4 µM) was 1.14; in test [3] (first compound 1.265 µM), 1.02; in test [3] (first compound 4 µM), 1.21; in test [4] (first compound 0.04 µM), 1.2; in test [4] (first compound 0.1265 µM) it was 1.04; in test [4] (first compound 0.4 µM) it was 0.903. Further, the relative viability in test [4] (first compound 1.265 µM) turned out to be 0.993; in test [4] (first compound 4 µM) it was 0.582.
As to ABC-1, the relative viability in test [1] (first compound 0.4 µM) worked out at 0.543; in test [1] (first compound 1.265 µM) it was 0.628; in test [1] (first compound 4 µM), 0.547; in test [2] (first compound 0.04 µM), 0.483; in test [2] (first compound 0.1265 µM), 0.302; in test [2] (first compound 0.4 µM), 0.262. For the same cell line, the relative viability in test [2] (first compound 1.265 µM) came to 0.256; in test [2] (first compound 4 µM), 0.285; in test [3] (first compound 0.04 µM) it was 0.804; in test [3] (first compound 0.1265 µM), 1.29; in test [3] (first compound 0.4 µM), 1.15; in test [3] (first compound 1.265 µM), 0.802. Also, the relative viability in test [3] (first compound 4 µM) is 0.417; in test [4] (first compound 0.04 µM) it was 1.3; in test [4] (first compound 0.1265 µM), 0.997; in test [4] (first compound 4 µM), 1.08.
BEN: the relative viability turned out to be 0.454 in test [1] (first compound 0.04 µM); 0.487 in test [1] (first compound 0.1265 µM); 0.469 in test [1] (first compound 0.4 µM); 0.437 in test [1] (first compound 1.265 µM); 0.464 in test [1] (first compound 4 µM); 0.747 in test [2] (first compound 0.04 µM). The relative viability in test [2] (first compound 0.1265 µM) was determined as 0.655; in test [2] (first compound 0.4 µM) it was 0.321; in test [2] (first compound 1.265 µM), 0.306; in test [2] (first compound 4 µM) it was 0.303; in test [3] (first compound 0.04 µM), 0.668; in test [3] (first compound 0.1265 µM), 0.449. Further, the relative viability in test [3] (first compound 0.4 µM) is 0.338; in test [3] (first compound 1.265 µM), 0.346; in test [3] (first compound 4 µM) it was 0.351; in test [4] (first compound 0.04 µM), 0.627; in test [4] (first compound 0.1265 µM), 0.695; in test [4] (first compound 0.4 µM), 0.348. The relative viability in test [4] (first compound 1.265 µM) turned out to be 0.279; in test [4] (first compound 4 µM), 0.317.
With CAL-12T, the relative viability in test [1] (first compound 0.04 µM) was 0.558; in test [1] (first compound 0.1265 µM), 0.409; in test [1] (first compound 0.4 µM) it was 0.601; in test [1] (first compound 1.265 µM) it was 0.288; in test [1] (first compound 4 µM), 0.556; in test [2] (first compound 0.04 µM), 1.23. Also, the relative viability in test [2] (first compound 0.1265 µM) came out at 1.08; in test [2] (first compound 0.4 µM), 0.834; in test [2] (first compound 4 µM), 0.678; in test [3] (first compound 0.04 µM), 1.42; in test [3] (first compound 0.1265 µM) it was 1.3; in test [3] (first compound 0.4 µM) it was 1.28. Further, the relative viability in test [3] (first compound 1.265 µM) worked out at 0.793; in test [3] (first compound 4 µM), 0.51; in test [4] (first compound 0.04 µM), 1.25; in test [4] (first compound 0.1265 µM), 0.817; in test [4] (first compound 0.4 µM) it was 0.849; in test [4] (first compound 4 µM), 0.685.
Consider COR-L23, for which the relative viability was 0.234 in test [1] (first compound 0.04 µM); 0.298 in test [1] (first compound 0.1265 µM); 0.259 in test [1] (first compound 0.4 µM); 0.254 in test [1] (first compound 1.265 µM); 0.282 in test [1] (first compound 4 µM); 1.08 in test [2] (first compound 0.04 µM). Further, the relative viability is 0.646 in test [2] (first compound 0.1265 µM); 0.238 in test [2] (first compound 0.4 µM); 0.185 in test [2] (first compound 1.265 µM); 0.193 in test [2] (first compound 4 µM); 0.91 in test [3] (first compound 0.04 µM); 0.778 in test [3] (first compound 0.1265 µM). In addition, the relative viability in test [3] (first compound 0.4 µM) was determined as 0.569; in test [3] (first compound 1.265 µM) it was 0.182; in test [3] (first compound 4 µM) it was 0.176; in test [4] (first compound 0.04 µM), 1.16; in test [4] (first compound 0.1265 µM) it was 0.714; in test [4] (first compound 0.4 µM), 0.335. Moreover, the results for the relative viability in test [4] (first compound 1.265 µM) and in test [4] (first compound 4 µM) were 0.198 and 0.143, respectively.
